Measurements: DBAASP
≈ marks a conversion by molar mass, not a printed value. Where “and” joins values, the source holds several entries; their conditions need not be identical. Equal entries are not always repeated. Values belong to the compound of their own block, whether it stands above or below them.

How the values were obtained:
Assay in all cases: ≥ marks a high value that may be exact or a test limit, other limits are often not marked, values filed in µg/mL are converted to µM
[1] = system: Escherichia coli ATCC 25922
[2] = system: Pseudomonas aeruginosa PAO1
Enterococcus faecium = system: Enterococcus faecium
[3] = system: Staphylococcus aureus ATCC 43300
Enterococcus faecalis = system: Enterococcus faecalis
Bacillus subtilis = system: Bacillus subtilis
Klebsiella pneumoniae = system: Klebsiella pneumoniae
Streptococcus pneumoniae = system: Streptococcus pneumoniae
[4] = system: Staphylococcus epidermidis BCM0060
[5] = system: Pseudomonas aeruginosa ATCC 27853
[6] = system: Klebsiella pneumoniae ATCC 13883
Staphylococcus warneri = system: Staphylococcus warneri
[7] = system: Staphylococcus aureus ATCC 29213
[8] = system: Staphylococcus haemolyticus
[9] = system: Acinetobacter baumannii ATCC 19606
[10] = system: Staphylococcus lugdunensis
[11] = system: Fusarium graminearum KCTC 16656
[12] = system: Fusarium oxysporum KCTC 16909
[13] = system: Trichoderma virens KCTC 16924
[14] = system: Aspergillus flavus KCTC 6905
[15] = system: Fusarium verticillioides KCTC 6149
[16] = system: Candida albicans CCARM 14001
[17] = system: Fusarium solani KCTC 6326
[18] = system: Candida albicans KCTC 7270
[19] = system: Trichoderma viride KCTC 16992
[20] = system: Colletotrichum gloeosporioides KCTC 6169
[21] = system: Candida parapsilosis CCARM 14016
[22] = system: Candida albicans CCARM 14020
[23] = system: Candida krusei CCARM 14017
[24] = system: Trichophyton rubrum KCTC 6345
[25] = system: Candida albicans CCARM 14007
[26] = system: Candida albicans CCARM 14004
[27] = system: Staphylococcus epidermidis KCTC 1917
[28] = system: Pseudomonas aeruginosa CCARM 2109
[29] = system: Pseudomonas aeruginosa KCTC 1637
[30] = system: Enterococcus faecium ATCC 51559
[31] = system: Salmonella typhimurium KCTC 1926
[32] = system: Bacillus subtilis KCTC 3068
[33] = system: Staphylococcus aureus CCARM 3095
[34] = system: Staphylococcus aureus CCARM 3090
[35] = system: Pseudomonas aeruginosa CCARM 2095
[36] = system: Staphylococcus aureus CCARM 3089
[37] = system: Escherichia coli ATCC 11775
[38] = system: Candida albicans ATCC 14053
[39] = system: Staphylococcus aureus ATCC 12600
[40] = system: Micrococcus luteus ATCC 49732
[41] = system: Pseudomonas syringae pv. actinidiae Psa3700.1.1
[42] = system: Xanthomonas campestris pv. Vesicatoria 2133-2
[43] = system: Erwinia amylovora PMV 6076
[44] = system: Xanthomonas arboricola pv. pruni CFBP 5563
[45] = system: Xanthomonas fragariae Xf349-9A
[46] = system: Pseudomonas syringae pv. syringae EPS 94

MIC [1]: 1 µM and 3 µM
MIC [2]: 1.7 µM (≈ 3.45 µg/mL)
MIC (Enterococcus faecium): 0.3 µM (≈ 0.609 µg/mL)
MIC [3]: 1.3 µM and 2.7 µM
MIC (Enterococcus faecalis): 1 µM (≈ 2.03 µg/mL)
MIC (Bacillus subtilis): 1.33 µM (≈ 2.7 µg/mL)
MIC (Klebsiella pneumoniae): 4.7 µM (≈ 9.55 µg/mL)
MIC (Streptococcus pneumoniae): 9.3 µM (≈ 18.9 µg/mL)
MIC [4]: 2.3 µM (≈ 4.67 µg/mL)
SMILES: CC[C@H](C)[C@H](NC(=O)[C@H](CCCCN)NC(=O)[C@H](Cc1c[nH]c2ccccc12)NC(=O)[C@H](CCCN=C(N)N)NC(=O)[C@H](CCCN=C(N)N)NC(=O)CNC(=O)[C@H](Cc1cnc[nH]1)NC(=O)CNC(=O)CN)C(=O)N[C@H](C(=O)N[C@H](C(=O)N[C@H](C(=O)N[C@@H](CCCN=C(N)N)C(=O)N[C@@H](Cc1c[nH]c2ccccc12)C(=O)N[C@@H](CCCN=C(N)N)C(=O)N[C@@H](CCCN=C(N)N)C(N)=O)[C@@H](C)CC)C(C)C)C(C)C [GGHGRRWKIVVIRWRR]

MIC [1]: 11.3 µM (≈ 28.4 µg/mL)
MIC [5]: 8 µM (≈ 20.1 µg/mL)
MIC [6]: 8 µM (≈ 20.1 µg/mL)
MIC (Staphylococcus warneri): 12.5 µM (≈ 31.3 µg/mL)
MIC [7]: 1 µM (≈ 2.51 µg/mL)
MIC [9]: 8 µM (≈ 20.1 µg/mL)
MIC [10]: 24.9 µM (≈ 62.5 µg/mL)
SMILES: CC(C)C[C@H](NC(=O)CN)C(=O)N[C@@H](CC(C)C)C(=O)N[C@@H](CCCN=C(N)N)C(=O)N[C@@H](C)C(=O)N[C@@H](CO)C(=O)N[C@@H](CO)C(=O)N[C@@H](CCCCN)C(=O)N[C@@H](Cc1c[nH]c2ccccc12)C(=O)NCC(=O)N[C@@H](CCCN=C(N)N)C(=O)N[C@@H](CCCCN)C(=O)N[C@@H](Cc1ccc(O)cc1)C(=O)N[C@@H](Cc1ccc(O)cc1)C(=O)N[C@H](C(=O)N[C@@H](CC(=O)O)C(=O)N[C@@H](CC(C)C)C(=O)N[C@@H](C)C(=O)NCC(=O)N[C@@H](CS)C(=O)N[C@@H](C)C(=O)N[C@@H](CCCCN)C(=O)N[C@@H](C)C(=O)O)C(C)C [GLLRASSKWGRKYYVDLAGCAKA]
MIC [8]: 24.9 µM (≈ 62.5 µg/mL)

MIC [27]: 2 µM (≈ 4.97 µg/mL)
MIC [28]: 4 µM (≈ 9.94 µg/mL)
MIC [29]: 2 µM (≈ 4.97 µg/mL)
MIC [30]: 2 µM (≈ 4.97 µg/mL)
MIC [31]: 1 µM (≈ 2.49 µg/mL)
MIC [32]: 4 µM (≈ 9.94 µg/mL)
MIC [33]: 2 µM (≈ 4.97 µg/mL)
MIC [34]: 2 µM (≈ 4.97 µg/mL)
MIC [35]: 4 µM (≈ 9.94 µg/mL)
MIC [36]: 2 µM (≈ 4.97 µg/mL)
SMILES: C[C@H](NC(=O)[C@H](CCCCN)NC(=O)[C@H](Cc1ccc(O)cc1)NC(=O)[C@H](Cc1c[nH]c2ccccc12)NC(=O)[C@H](CCCCN)NC(=O)[C@H](CCCCN)NC(=O)[C@H](Cc1ccccc1)NC(=O)[C@H](CCCN=C(N)N)NC(=O)[C@@H](N)CCCCN)C(=O)N[C@@H](Cc1c[nH]c2ccccc12)C(=O)N[C@@H](CCCN=C(N)N)C(=O)N[C@@H](CCCCN)C(=O)N[C@@H](CCCCN)C(=O)N[C@@H](Cc1c[nH]c2ccccc12)C(=O)N[C@@H](CCCN=C(N)N)C(=O)N[C@@H](CCCCN)C(=O)N[C@@H](Cc1ccc(O)cc1)C(N)=O [KRFKKWYKAWRKKWRKY]

The remaining lines, values behind:

SMILES: NCCCC[C@H](NC(=O)[C@H](CCCCN)NC(=O)[C@H](Cc1cnc[nH]1)NC(=O)[C@H](CCCCN)NC(=O)[C@H](CCCCN)NC(=O)[C@@H](N)Cc1cnc[nH]1)C(N)=O [HKKHKK]
MIC [11]: ≥ 64 µM
MIC [12]: ≥ 64 µM
MIC [13]: ≥ 32 µM
MIC [14]: ≥ 64 µM
MIC [15]: ≥ 32 µM
MIC [16]: ≥ 64 µM
MIC [17]: ≥ 32 µM
MIC [18]: ≥ 64 µM
MIC [19]: ≥ 64 µM
MIC [20]: 16 µM (≈ 12.9 µg/mL)
MIC [21]: ≥ 64 µM
MIC [22]: ≥ 64 µM
MIC [23]: ≥ 64 µM
MIC [24]: ≥ 64 µM
MIC [25]: ≥ 64 µM
MIC [26]: ≥ 64 µM

SMILES: CC(C)[C@H](NC(=O)[C@H](C)NC(=O)[C@@H](NC(=O)CNC(=O)[C@@H]1CCCN1)[C@@H](C)O)C(=O)N[C@@H](Cc1ccccc1)C(=O)N[C@@H](C)C(=O)O [PGTAVFA]
MIC [37]: ≥ 1010 µM
MIC [38]: ≥ 1010 µM
MIC [39]: ≥ 1010 µM
MIC [40]: ≥ 1010 µM

SMILES: CC[C@H](C)[C@H](NC(=O)CNC(=O)[C@@H](N)Cc1ccc(O)cc1)C(=O)N[C@@H](Cc1cnc[nH]1)C(=O)N[C@H](C(=O)N[C@@H](Cc1cnc[nH]1)C(N)=O)[C@@H](C)O [YGIHTH]
MIC [41]: ≥ 50 µM
MIC [42]: ≥ 50 µM
MIC [43]: ≥ 50 µM
MIC [44]: ≥ 50 µM
MIC [45]: ≥ 50 µM
MIC [46]: ≥ 50 µM
